Reference: patent publication US6838414B2, “Substituted aryl sulphonyl(thio)ureas used as herbicides” (Bayer Aktiengesellschaft, priority 1996, dated 2005)

Legend:
Format in all cases: in vivo
[1] = system: weeds; experiment: Pre-emergence test (overall statement); conditions: application rates between 30 g and 125 g of a.i. per hectare
Description: (§1) To produce a suitable preparation of active compound, 1 part by weight of active compound is mixed with the stated amount of solvent, the stated amount of emulsifier is added and the concentrate is diluted with water to the desired concentration.
(§2) Seeds of the test plants are sown in normal soil. After about 24 hours, the soil is sprayed with the preparation of the active compound. Advantageously, the amount of water per unit area is kept constant. The active compound concentration in the preparation is not important, only the active compound application rate per unit area is critical.
(§3) After three weeks, the degree of damage to the plants is rated in % damage in comparison with the development of the untreated control.
(§4) The figures denote: • 0%=no effect (like untreated control) • 100%=total destruction

[2] = system: Amaranthus; experiment: Pre-emergence test/greenhouse; conditions: after three weeks
Description: as §1, §2, §3, §4

[3] = system: Alopecurus; experiment: Pre-emergence test/greenhouse; conditions: after three weeks
Description: as §1, §2, §3, §4

[4] = system: Stellaria; experiment: Pre-emergence test/greenhouse; conditions: after three weeks
Description: as §1, §2, §3, §4

[5] = system: Lolium; experiment: Pre-emergence test/greenhouse; conditions: after three weeks
Description: as §1, §2, §3, §4

[6] = system: Sorghum; experiment: Pre-emergence test/greenhouse; conditions: after three weeks
Description: as §1, §2, §3, §4

[7] = system: Chenopodium; experiment: Pre-emergence test/greenhouse; conditions: after three weeks
Description: as §1, §2, §3, §4

[8] = system: Alopecurus; experiment: Post-emergence test/greenhouse; conditions: application rate 30 g of ai./ha, rated after three weeks vs untreated control
Description: as §1
(§5) Test plants which have a height of 5-15 cm are sprayed with the preparation of the active compound in such a way as to apply the particular amounts of active compound desired per unit area. The concentration of the spray liquor is chosen so that the amounts of active compound desired in each case are applied in 1000 l of water/ha.
as §3, §4

[9] = system: weeds; experiment: Post-emergence test/greenhouse
Description: as §1, §5, §3, §4

[10] = system: Matricaria; experiment: Post-emergence test/greenhouse; conditions: application rate 30 g of ai./ha, rated after three weeks vs untreated control
Description: as §1, §5, §3, §4

[11] = system: Abutilon; experiment: Post-emergence test/greenhouse; conditions: application rate 30 g of ai./ha, rated after three weeks vs untreated control
Description: as §1, §5, §3, §4

[12] = system: Echinochloa; experiment: Post-emergence test/greenhouse; conditions: application rate 30 g of ai./ha, rated after three weeks vs untreated control
Description: as §1, §5, §3, §4

Structure (SMILES) | activity against weeds [1] | Amaranthus, % damage ([2]; 60 g of ai./ha) | Alopecurus, % damage ([3]; 60 g of ai./ha) | Steltaria, % damage ([4]; 60 g of ai./ha) | Lolium, % damage ([5]; 60 g of ai./ha) | Sorghum, % damage ([6]; 60 g of ai./ha) | Chenopodium, % damage ([7]; 60 g of ai./ha) | degree of damage to the plants, Alopecurus [8] | activity against weeds [9] | degree of damage to the plants, Matricaria [10] | degree of damage to the plants, Abutilon [11] | degree of damage to the plants, Echinochloa [12] | Alopecurus, % damage ([3]; 30 g of ai./ha) | Steltaria, % damage ([4]; 30 g of ai./ha) | Sorghum, % damage ([6]; 30 g of ai./ha) | Chenopodium, % damage ([7]; 30 g of ai./ha) | Lolium, % damage ([5]; 30 g of ai./ha) | Amaranthus, % damage ([2]; 30 g of ai./ha)
CCCOc1cccc(C(F)(F)F)c1S(=O)(=O)NC(=O)Nc1nc(OC)nc(OC)n1 [Example 10] | very strong activity against weeds | 100% | 100% | 100% | 100% | 100% | 100% | – | – | – | – | – | – | – | – | – | – | –
CCOc1cccc(C(F)(F)F)c1S(=O)(=O)NC(=O)Nc1nc(Cl)cc(OC)n1 [Example 16] | very strong activity against weeds | – | – | – | – | – | – | 70% | very strong activity against weeds | 100% | 100% | 70% | 100% | 90% | 80% | 100% | – | –
CCOc1cccc(C(F)(F)F)c1S(=O)(=O)NC(=O)Nc1nc(OC)cc(OC)n1 [Example 23] | – | – | – | – | – | – | – | 60% | very strong activity against weeds | 95% | 95% | 70% | – | – | – | – | – | –
COc1cc(C)nc(NC(=O)NS(=O)(=O)c2c(C)cccc2OC(C)C)n1 [Example 33] | very strong activity against weeds | – | – | – | – | – | – | – | – | – | – | – | 100% | 90% | 100% | 70% | 95% | –
COc1nc(NC(=O)NS(=O)(=O)c2c(OC(C)C)cccc2C(F)(F)F)nc(OC)n1 [Example 13] | very strong activity against weeds | 100% | 100% | 100% | 100% | 100% | 100% | – | – | – | – | – | – | – | – | – | – | –
CCOc1cccc(C(F)(F)F)c1S(=O)(=O)NC(=O)Nc1nc(C)cc(C)n1 [Example 8] | very strong activity against weeds | – | – | – | – | – | – | 80% | very strong activity against weeds | 100% | 90% | 90% | 100% | 90% | 100% | 80% | 100% | –
CCCOc1cccc(C)c1S(=O)(=O)NC(=O)Nc1nc(C)cc(OC)n1 [Example 46] | very strong activity against weeds | 90% | 100% | 80% | 90% | 100% | 100% | – | – | – | – | – | – | – | – | – | – | –
COc1nc(C)nc(NC(=O)NS(=O)(=O)c2c(C)cccc2OC2CCCC2)n1 [Example 56] | very strong activity against weeds | 100% | 100% | 100% | 100% | 90% | 100% | – | – | – | – | – | – | – | – | – | – | –
COc1cc(OC)nc(NC(=O)NS(=O)(=O)c2c(OC)cccc2C(F)(F)F)n1 [Example 22] | very strong activity against weeds | – | – | – | – | – | – | 60% | very strong activity against weeds | 95% | 95% | 80% | 100% | 100% | 95% | 100% | – | 100%
COc1cc(OC)nc(NC(=O)NS(=O)(=O)c2c(OC(C)C)cccc2C(F)(F)F)n1 [Example 25] | – | – | – | – | – | – | – | 60% | very strong activity against weeds | 90% | 95% | 70% | – | – | – | – | – | –
